The values below come from US20170119776A1, “CHIRAL 2,5-DISUBSTITUTED CYCLOPENTANECARBOXYLIC ACID DERIVATIVES AND USE THEREOF” (BAYER PHARMA AKTIENGESELLSCHAFT, priority 2014, published 2017).

Molecules are shown by their SMILES.

Common to all, as to format: biochemical
One test deals with T1, MMP-3 (Homo sapiens, UniProt P08254).
T1 construct: purchased R&D Systems 513-MP
Briefly: In vitro MMP-3 inhibition test. From the text:
(§1) The activity strength of the compounds according to the invention towards other MMPs (and therefore their selectivity) is likewise ascertained in in vitro inhibition tests. The MMP-mediated amidolytic cleavage of a suitable peptide substrate also leads here to a fluorescent light increase. The signal intensity of the fluorescent light is directly proportional to the enzyme activity. The active concentration of a test compound at which half of the enzyme is inhibited (50% signal intensity of the fluorescent light) is given as IC50 value.
Recombinant MMP-3 (R&D Systems, 513-MP) is chemically activated in accordance with the manufacturer's instructions using APMA. 1 μl of the test compound to be analysed (as a solution in DMSO, suitable concentrations e.g. 1 nM to 30 μM) is pipetted into 24 μl of activated enzyme (final concentration e.g. 2 nM) in reaction buffer (50 mM Tris/HCl pH 7.5, 10 mM CaCl2, 150 mM NaCl, 0.05% Brij®-35) in a white 384-hole microtiter plate (MTP). The enzymatic reaction is started by adding the intramolecularly quenched substrate Mca-Arg-Pro-Lys-Pro-Val-Glu-Nval-Trp-Arg-Lys(Dnp)-NH2 (final concentration e.g. 10 μM; R&D Systems, ES-002), such that a total test volume of 50 μl results. The progress of the MMP-3 reaction is measured by measuring the fluorescence intensity (excitation 320 nm, emission 410 nm) over a suitable period (e.g. over 120 min at a temperature of 32° C.).
(§2) The IC50 values were determined for racemates and enantiomers from differently generated DMSO stock solutions. Whereas an automatically produced DMSO stock solution from the internal substance logistics was used for racemates by means of a standard method, in the case of enantiomers a freshly produced, manually prepared DMSO stock solution was used in each case for a more precise direct comparison of the enantiomers with one another.

The target of a further test is T2, MMP-14 (Homo sapiens, UniProt P50281).
T2 construct: purchased R&D Systems 918-MP
Briefly: In vitro MMP-14 inhibition test.
From the text: as §1
Recombinant MMP-14 (R&D Systems, 918-MP) is enzymatically activated in accordance with the manufacturer's instructions using recombinant furin (R&D Systems, 1503-SE). 1 μl of the test compound to be analysed (as a solution in DMSO, suitable concentrations e.g. 1 nM to 30 μM) is pipette into 24 μl of activated enzyme (final concentration e.g. 0.5 nM) in reaction buffer (50 mM Tris/HCl pH 7.5, 10 mM CaCl2, 150 mM NaCl, 0.05% Brij®-35) in a white 384-hole microtiter plate (MTP). The enzymatic reaction is started by adding the intramolecularly quenched substrate Mca-Lys-Pro-Leu-Gly-Leu-Dpa(Dnp)-Ala-Arg-NH2 (final concentration e.g. 5 μM; R&D Systems, ES-010), such that a total test volume of 50 μl results. The progress of the MMP-14 reaction is measured by measuring the fluorescence intensity (excitation 320 nm, emission 410 nm) over a suitable period (e.g. over 120 min at a temperature of 32° C.).
as §2

For the next test, the target named is T3, MMP-9 of the mouse (Mus musculus, UniProt P41245).
T3 construct: purchased R&D Systems 909-MP
Briefly: In vitro MMP-9 inhibition test of the mouse.
From the text: as §1
Recombinant MMP-9 of the mouse (R&D Systems, 909-MP) is chemically activated in accordance with the manufacturer's instructions using APMA. 1 μl of the test compound to be analysed (as a solution in DMSO, suitable concentrations e.g. 1 nM to 30 μM) is pipetted into 24 μl of activated enzyme (final concentration e.g. 0.1 nM) in reaction buffer (50 mM Tris/HCl pH 7.5, 10 mM CaCl2, 150 mM NaCl, 0.05% Brij®-35) in a white 384-hole microtiter plate (MTP). The enzymatic reaction is started by adding the intramolecularly quenched substrate Mca-Pro-Leu-Gly-Leu-Dpa(Dnp)-Ala-Arg-NH2 (final concentration e.g. 5 μM; R&D Systems, ES-001), such that a total test volume of 50 μl results. The progress of the MMP-9 reaction is measured by measuring the fluorescence intensity (excitation 320 nm, emission 410 nm) over a suitable period (e.g. over 120 min at a temperature of 32° C.).
Tables 3A and 3B below give the IC50 values from these tests for the inhibition of rodent MMPs for representative embodiment examples of the present invention and also for two structurally related comparison compounds from the prior art (as racemate and separated enantiomer)→(in part as average values from several independent individual determinations and rounded to two significant places). The IC50 values were determined for racemates and enantiomers from differently generated DMSO stock solutions. Whereas an automatically created DMSO stock solution from the internal substance logistics was used for racemates by means of a standard method, in the case of enantiomers, in each case a freshly produced, manually prepared DMSO stock solution was used for a more precise direct comparison of the enantiomers with one another.

T1 sequence (P08254 100-477): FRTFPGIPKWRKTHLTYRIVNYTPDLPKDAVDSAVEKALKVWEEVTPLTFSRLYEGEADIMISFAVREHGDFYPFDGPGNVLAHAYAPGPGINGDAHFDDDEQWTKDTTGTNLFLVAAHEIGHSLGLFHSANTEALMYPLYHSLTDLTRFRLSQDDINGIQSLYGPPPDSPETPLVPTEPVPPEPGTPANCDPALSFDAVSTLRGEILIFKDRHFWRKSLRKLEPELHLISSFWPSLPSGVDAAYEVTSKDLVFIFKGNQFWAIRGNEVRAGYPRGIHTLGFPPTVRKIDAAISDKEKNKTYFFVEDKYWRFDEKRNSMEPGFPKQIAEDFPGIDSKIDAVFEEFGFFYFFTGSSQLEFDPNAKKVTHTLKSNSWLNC
T3 sequence (P41245 108-730): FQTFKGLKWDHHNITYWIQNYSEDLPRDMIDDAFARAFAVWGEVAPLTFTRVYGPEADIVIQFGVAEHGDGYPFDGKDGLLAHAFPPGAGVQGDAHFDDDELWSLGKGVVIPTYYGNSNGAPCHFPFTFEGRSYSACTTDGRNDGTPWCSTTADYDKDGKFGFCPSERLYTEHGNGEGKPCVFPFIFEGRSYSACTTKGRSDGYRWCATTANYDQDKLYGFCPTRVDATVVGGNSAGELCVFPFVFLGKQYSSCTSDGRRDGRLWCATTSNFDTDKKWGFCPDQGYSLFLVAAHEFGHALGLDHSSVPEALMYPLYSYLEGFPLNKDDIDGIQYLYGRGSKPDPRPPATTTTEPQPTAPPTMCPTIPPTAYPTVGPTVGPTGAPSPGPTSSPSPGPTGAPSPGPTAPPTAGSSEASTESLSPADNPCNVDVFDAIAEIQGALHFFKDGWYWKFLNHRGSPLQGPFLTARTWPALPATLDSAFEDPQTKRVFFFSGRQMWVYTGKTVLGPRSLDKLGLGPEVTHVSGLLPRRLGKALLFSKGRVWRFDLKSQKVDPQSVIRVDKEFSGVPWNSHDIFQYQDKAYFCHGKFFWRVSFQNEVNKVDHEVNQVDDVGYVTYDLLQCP

The term IC50 denotes the midpoint of a concentration-inhibition curve. High values mean lower potency, low ones higher potency. `O=C(O)[C@H]1[C@H](Cn2nnc3ccccc3c2=O)CC[C@@H]1C(=O)c1ccc(OCc2ccccc2)cc1` [Example 2, (+)-(1S,2S,5R)-2-[4-(Benzyloxy)benzoyl]-5-[(4-oxo-1,2,3-benzotriazin-3(4H)-yl)methyl]cyclopentanecarboxylic acid]: the IC50 was found to be 175 nM at MMP-3, 15 nM against MMP-14 and 27.5 nM on MMP-9 of the mouse.
With `O=C(O)[C@@H]1[C@@H](Cn2nnc3ccccc3c2=O)CC[C@H]1C(=O)c1ccc(-c2ccc(Cl)cc2)cc1` (single isomer, unassigned; enantiomer 2) [Comparative Example A-3, (1RS,2RS,5SR)-2-[(4′-Chlorobiphenyl-4-yl)carbonyl]-5-[(4-oxo-1,2,3-benzotriazin-3(4H)-yl)methyl]cyclopentanecarboxylic acid (enantiomer 2)], the IC50 against MMP-3 was 22.5 nM; against MMP-14 it was 1.2 nM; against MMP-9 of the mouse it was 1.5 nM.
For `CCCCCOc1ccc(C(=O)CC(CCn2nnc3ccccc3c2=O)C(=O)O)cc1` (single isomer, unassigned; enantiomer 1) [Comparative Example B-2, (+)-4-Oxo-2-[2-(4-oxo-1,2,3-benzotriazin-3(4H)-yl)ethyl]-4-[4-(pentyloxy)phenyl]butanoic acid (enantiomer 1)] the same measures were 6600 nM, 1300 nM and 905 nM.
As to `CCCCCOc1ccc(C(=O)CC(CCn2nnc3ccccc3c2=O)C(=O)O)cc1` (racemic) [Comparative Example B-1, (+/−)-4-Oxo-2-[2-(4-oxo-1,2,3-benzotriazin-3(4H)-yl)ethyl]-4-[4-(pentyloxy)phenyl]butanoic acid (racemate)], the IC50 came out at 9150 nM on MMP-3, 3800 nM at MMP-14 and 2700 nM against MMP-9 of the mouse.
Taken in the same sequence, the figures for `O=C(O)[C@H]1[C@H](Cn2nnc3ccccc3c2=O)CC[C@@H]1C(=O)c1ccc(-c2ccc(Cl)cc2)cc1` (racemic) [Comparative Example A-1, (1RS,2RS,5SR)-2-[(4′-chlorobiphenyl-4-yl)carbonyl]-5-[(4-oxo-1,2,3-benzotriazin-3(4H)-yl)methyl]cyclopentanecarboxylic acid (racemate)] were 49 nM, 2.9 nM and 4.9 nM.
For `O=C(O)[C@H]1[C@H](Cn2nnc3ccccc3c2=O)CC[C@@H]1C(=O)c1ccc(OCc2ccccc2)cc1` (racemic) [Example 1, (+/−)-(1RS,2RS,5SR)-2-[4-(Benzyloxy)benzoyl]-5-[(4-oxo-1,2,3-benzotriazin-3(4H)-yl)methyl]cyclopentanecarboxylic acid (racemate)] the same measures were 390 nM, 27 nM and 71 nM.
